# According to patent US20140199760A1, “PLANTS HAVING ENHANCED ABIOTIC STRESS RESISTANCE” (UNIVERSITY OF TORONTO, priority 2011, published 2014):
# Experiments:
# canola (Westar cultivar) = assay: Drought treatment of canola with BRZ added to soil; water loss per final shoot dry weight; assay type: in vivo
# corn (B73 cultivar) = assay: Drought treatment of corn with BRZ added to soil; water loss per final shoot dry weight; assay type: in vivo
# Source text: (§1) FIG. 2. (A) Soil water content of wild-type Columbia (red), era1-2 (green), and line cyp85a2 (blue) during a drought treatment. […] Error bars represent standard error (n=8). (B) Water loss during the first 9 days of drought treatment divided by the final shoot dry weight (SDW) in wild-type Columbia, era1-2, and line cyp85a2. Error bars represent standard error (n=6). (C) Cold stress treatment. […]
# (§2) Soil (20:20:20), prepared that day, was consistently weighed into pots (typically 140 g) and covered with a plastic wrap (GLAD Press'n Seal® Wrap) that had been punctured with a small hole in the centre. […] This was typically done by withholding water for 9 days after which shoot biomass was harvested and fresh weight was determined. Shoots were then dried at 60 C for 3 days and dry weight was determined. […]
# (§3) The observation that a deficiency in endogenous BL in cyp85a2 enables drought resistance to Arabidopsis prompted the hypothesis that a similar mechanism might exist in other plant species, such as corn, soybean, and canola. […] Immediately […] the start of the experiment, daily measurements of water use were monitored to quantify the rate of water loss. […]
# [1] = system: soybean (OAC Wallace cultivar); assay: Drought treatment of soybean with BRZ added to soil; water loss per final shoot dry weight; assay type: in vivo
# Source text: as §1, §2, §3
# bean crop = settings: applied brassinolide; cited from earlier work
# [2] = 10 μM final concentration in soil, root uptake, 4 day drought, vs untreated controls
Compound,water use efficiency improved (canola (Westar cultivar); [2]) [%],"water loss per unit of shoot weight than that of the untreated controls (canola (Westar cultivar); 10 μM final, drought, P<0.05)","water use efficiency improved (corn (B73 cultivar); 20 μM final concentration in soil, root uptake, 3.5 day drought, vs untreated controls) [%]","water loss per unit of shoot weight than that of the untreated controls (corn (B73 cultivar); 20 μM final, drought, P<0.05)","water use efficiency improved [1, 2] [%]","water loss per unit of shoot weight than that of the untreated controls ([1]; 10 μM final, drought, P<0.05)",increase bean crop yield (bean crop)
"CC(O)(c1ccccc1)C(Cc1ccc(Cl)cc1)n1cncn1 (stereo not shown) [BRZ, Brassinazole]",15,significantly less,28,significantly less,14,significantly less,
"CC(C)[C@H](C)[C@@H](O)[C@H](O)[C@@H](C)[C@H]1CC[C@H]2[C@@H]3COC(=O)[C@H]4C[C@H](O)[C@H](O)C[C@]4(C)[C@H]3CC[C@]12C [brassinolide, Brassinolide]",,,,,,,approximately 45%
